“Also recorded” adds a separate entry of the source.
Columns and labels:
[1] = test system: RNase L Protein in the Human Monocytic Leukemia Cell Line U937; test: RNase L fragmentation (2-5A binding proteins) in U937 cells, treatment Regimen #1; assay type: cell-based; settings: FIGS. 2 and 3 (Regimens #1 and #2)
Description: (§1) In the first condition (Regimen #1), confluent cultures of U937 cells were allowed to remain in culture for an additional 7 days without feeding or media supplementation in order to induce the cells to begin to undergo apoptosis, resulting in the fragmentation of native RNase L (among other proteins).

elastase = target: T1, elastase (Homo sapiens, UniProt P08246); test: Fragmentation of radio labeled rRNase L by cytoplasmic protein extracts of cefoperazone-treated U937 cells; assay type: cell-based; settings: extracts of U937 cells treated 72 hours with 10-1000 micrograms/mL; 15 micrograms extract, 5 minutes at 37 C; FIG. 4
T1 construct: 15 micrograms of U937 cell cytoplasmic protein extract was mixed with 0.1 microgram of ^32P-2-5A-radio labeled rRNase L; endogenous in cells; host or cells: U937 cells (cytoplasmic protein extract)
T1 sequence (P08246 30-267): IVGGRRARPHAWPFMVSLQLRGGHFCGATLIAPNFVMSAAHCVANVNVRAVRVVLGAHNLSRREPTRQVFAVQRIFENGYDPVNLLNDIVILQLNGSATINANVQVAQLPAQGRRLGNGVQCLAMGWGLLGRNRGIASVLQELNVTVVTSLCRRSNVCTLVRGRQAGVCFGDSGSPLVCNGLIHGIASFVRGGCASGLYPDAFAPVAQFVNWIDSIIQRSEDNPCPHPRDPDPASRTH
Description: as §1
Briefly, 15 micrograms of U937 cell cytoplasmic protein extract was mixed with 0.1 microgram of ^32P-2-5A-radio labeled rRNase L for a fixed incubation period (5 minutes) at 37 C. The reaction was terminated by the addition of 2×SDS-PAGE loading buffer, the samples were prepared and electrophoresed as described above and analyzed using densitometry.

alpha-1-antitrypsin = settings: through direct interaction of the drug with HOCl; cited from earlier work

For `CCN1CCN(C(=O)N[C@@H](C(=O)N[C@@H]2C(=O)N3C(C(=O)O)=C(CSc4nnnn4C)CS[C@H]23)c2ccc(O)cc2)C(=O)C1=O` [cefoperazone], the “production of the low molecular weight fragment of native RNase L protein” value [1] is listed as “inhibition is dose-dependent”, the “elastase activity (amount of LMW rRNase L protein generated from pre-labeled HMW rRNase L)” value (elastase) is listed as “inhibition occurs in a dose-dependent fashion; also recorded: marked inhibition of elastase activity” and the “level of inactivation of alpha-1-antitrypsin by activated neutrophils” value (alpha-1-antitrypsin) is listed as “reduce the level of inactivation of alpha-1-antitrypsin”.

From US7754707B2, “Methods of treatment of chronic immune disease” (R.E.D. Laboratories, N.V./S.A., priority 2002, dated 2010)
